Reference: patent publication US5021569A, “4-azatricyclo[4.3.1.1(3,8)]undecylarylpiperazines with anxiolytic activity” (priority 1990, dated 1991)
Counter-ions that a name gives are not always drawn. Like-named read-outs stand apart in the source and are kept apart here.

Tests used:
5-HT1A receptor = conditions: background literature; cited from earlier work
D2 receptor = target: T1, D2 receptor (Rattus norvegicus, UniProt P61169); test: D2 receptor affinity, reduction of 3H-spiroperidol binding; conditions: read-out: Affinity for D2 Receptor Sites, % Inhibition at 1 μM
T1 construct: from tissue
T1 sequence (P61169 whole entry): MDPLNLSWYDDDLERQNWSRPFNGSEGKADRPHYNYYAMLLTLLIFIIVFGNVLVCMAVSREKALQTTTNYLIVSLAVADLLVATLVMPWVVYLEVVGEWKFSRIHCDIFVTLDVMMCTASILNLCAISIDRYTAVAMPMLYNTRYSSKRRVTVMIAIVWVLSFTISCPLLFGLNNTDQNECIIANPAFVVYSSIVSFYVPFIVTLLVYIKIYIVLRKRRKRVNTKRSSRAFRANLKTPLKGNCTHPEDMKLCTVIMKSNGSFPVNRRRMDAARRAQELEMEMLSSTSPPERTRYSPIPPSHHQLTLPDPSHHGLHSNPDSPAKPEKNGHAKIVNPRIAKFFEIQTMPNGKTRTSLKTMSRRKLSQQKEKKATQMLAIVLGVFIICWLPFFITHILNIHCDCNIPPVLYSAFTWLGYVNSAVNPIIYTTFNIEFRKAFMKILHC
Method: The percentage reduction of ^3 H-spiroperidol binding at 1 μM concentration of test compound is reported, infra.

[1] = target: T2, 5-HT1A serotonin receptor subtype (Rattus norvegicus, UniProt P19327); test: 5-HT1A receptor binding, displacement of 3H-8-OH DPAT (procedure of Hall et al.); conditions: for inhibition at 0.1 µM: read-out: Affinity for 5-HT1A Receptor Sites, % Inhibition at 100 nM; for Ki: Ki calculated from IC50 values, read-out: Affinity for 5-HT1A Receptor Sites, Ki
T2 construct: from tissue
T2 sequence (P19327 1-422): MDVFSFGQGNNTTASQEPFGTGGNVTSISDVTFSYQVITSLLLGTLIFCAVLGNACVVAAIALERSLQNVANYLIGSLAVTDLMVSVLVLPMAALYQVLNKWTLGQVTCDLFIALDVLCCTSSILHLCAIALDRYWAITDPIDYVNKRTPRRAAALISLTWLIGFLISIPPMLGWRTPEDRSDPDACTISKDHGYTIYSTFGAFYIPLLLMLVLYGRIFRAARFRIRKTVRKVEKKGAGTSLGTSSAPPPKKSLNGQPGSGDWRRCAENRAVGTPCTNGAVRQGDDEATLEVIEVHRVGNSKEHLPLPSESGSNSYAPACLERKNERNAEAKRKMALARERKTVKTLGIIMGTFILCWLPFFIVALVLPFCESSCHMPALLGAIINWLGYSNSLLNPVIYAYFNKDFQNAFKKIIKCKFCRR
Source text: The serotoninergic properties of the compounds of this invention were established by the procedure of Hall et al., J. Neurochem.

[2] = background, U.S. Pat. No. 4,818,756; cited from earlier work
[3] = 1 μM test compound, 3H-spiroperidol
[4] = 100 nM test compound, 3H-8-OH DPAT

| Compound | binding at the 5-HT1A site (in words) (5-HT1A receptor) | inhibition at 0.1 µM [1, 4] [%] | also measured |
| --- | --- | --- | --- |
| O=C1CC2(CCCC2)CC(=O)N1CCCCN1CCN(c2ncccn2)CC1 [Buspirone, 8-[4-[-4-(2-pyrimidinyl)-1-piperazinyl]butyl]-8-azaspiro[4.5]decane-7,9-dione] | demonstrate binding at the 5-HT1A site |  |  |
| O=C(CCN1CCN(c2cccc(Cl)c2)CC1)N1CC2CC3CC(C2)CC1C3 [Example 1, 1-(4-Azatricyclo[4.3.1.1(3,8)]undec-4-yl)-3-[4-(3-chlorophenyl)-1-piperazinyl]-1-propanone] |  | 78 | inhibition at 1 µM (D2 receptor; [3]): 42%; Ki ([1]; 3H-8-OH DPAT): 30 nM |
| Clc1cccc(N2CCN(CCCN3CC4CC5CC(C4)CC3C5)CC2)c1 [Example 2, 4-[3-[4-(3-Chlorophenyl)-1-piperazinyl]propyl]-4-azatricyclo[4.3.1.1(3,8)]undecane Dihydrochloride One Third Hydrate] |  | 47 |  |
| COc1ccccc1N1CCN(CCC(=O)N2CC3CC4CC(C3)CC2C4)CC1 [Example 3, 1-(4-Azatricyclo[4.3.1.1(3,8)]undec-4-yl)-3-[4-(2-methoxyphenyl)-1-piperazinyl]-1-propanone Dihydrochloride Hydrate] |  |  | inhibition at 1 µM (D2 receptor): 71%; inhibition at 0.1 µM [1]: 92% |
| COc1ccccc1N1CCN(CCCN2CC3CC4CC(C3)CC2C4)CC1 [Example 4, 4-[3-[4-(2-Methoxyphenyl)-1-piperazinyl]propyl]-4-azatricyclo[4.3.1.1(3,8)]undecane Trihydrochloride One Quarter Hydrate] |  | 72 | inhibition at 1 µM (D2 receptor; [3]): 14%; Ki ([1]; 3H-8-OH DPAT): 33 nM |
| O=C(CCN1CCN(c2ncccn2)CC1)N1CC2CC3CC(C2)CC1C3 [Example 5, 1-(4-Azatricyclo[4.3.1.1(3,8)]undec-4-yl)-3-[4-(2-pyrimidinyl)-1-piperazinyl]-1-propanone] |  | 46 |  |
| O=C1c2ccccc2S(=O)(=O)N1CCCCN1CCN(c2ncccn2)CC1 [TVX Q 7821, 2-[4-[4-(2-pyrimidinyl)-1-piperazinyl]buyl]-1,2-benzisothiazol-3-(2H)one-1,1-dioxide hydrochloride] | demonstrate binding at the 5-HT1A site |  | antidepressant activity (in words) [2]: found to possess antidepressant activity |
| CCCC(C)C1(CC)C(=O)NC(=O)NC1=O (centres unmarked) [pentobarbital] | do not act via the 5-HT1A receptor |  |  |
